From article PMC10622577, “Structural basis for stabilisation of the RAD51 nucleoprotein filament by BRCA2” (Nature Communications, 2023)

Assays:
[1] = tested on: RAD51 NPFs on DNA capped at both ends with mSA; test: EMSA of TR2 binding to RAD51 NPFs on mSA-capped DNA; design: species or system human; conditions: doubly-biotinylated ss- and dsDNA, mSA in 5× molar excess of biotin labels; SYBR Gold; two independent repeats
Excerpt: To understand the structural basis for the association of the BRCA2 C-terminus with the RAD51 nucleoprotein filament, we sought to determine the structure of a RAD51-DNA-TR2 filament by high-resolution cryo-electron microscopy (cryoEM). […] Individual filaments within a bundle appeared to be in translational register relative to each other as it was possible to obtain well-resolved 2D classes of filament pairs (Supplementary fig. 5A, Supplementary Table 1). Filament aggregation induced by TR2 complicated picking of individual filament particles and prevented structural determination by cryoEM. We therefore sought to develop a method to prepare RAD51 NPFs in the presence of TR2 peptide without causing filament bundling. We reasoned that bundling might be alleviated by capping the DNA substrate with a bulky tag, to prevent filament aggregation by steric interference. We therefore prepared ss- and dsDNA substrates with a biotin tag at either one end or both ends, that could be bound by monomeric streptavidin (mSA) (Supplementary Fig. 5B, Supplementary Table 1).
Fig. 2 BRCA2 TR2 induces bundling of RAD51 nucleoprotein filaments. […]
Before electrophoresis, samples were mixed with a 0.5:1 volume of 50% (w/v) sucrose solution and analysed on a pre-run 0.5% (w/v) agarose gel in 0.5× TB buffer at 35 V for 2.5 hours at 4 °C. […]

[2] = tested on: wild-type RAD51 NPFs; test: EMSA of TR2 titration on wild-type RAD51 nucleoprotein filaments (NPFs); type: binding, human
Experimental: (§1) To assess RAD51 nucleoprotein (NPF) formation, wild-type and mutant RAD51 proteins were incubated with DNA in buffer: 25 mM HEPES pH 7.5, 150 mM NaCl, 2 mM DTT, 2 mM ATP, 5 mM CaCl2 for 15 minutes at room temperature. For filament binding of the TR2 peptide or His6-MBP-TR2 protein, the RAD51 NPFs were incubated with TR2 for further 5 minutes at room temperature. For filament binding of BRC4, the BRC4 peptide was pre-mixed with RAD51 for 10 minutes at room temperature before addition of DNA. For experiments with mono-streptavidin (mSA)-capped DNA, mSA (Sigma) was added in 5× molar excess of biotin labels for 15 minutes at room temperature prior to the addition of RAD51. Concentrations are provided in figures and DNA sequences for each experiment are reported in Supplementary Table 1.
(§2) Before electrophoresis, samples were mixed with a 0.5:1 volume of 50% (w/v) sucrose solution and analysed on a pre-run 0.5% (w/v) agarose gel in 0.5× TB buffer at 35 V for 2.5 hours at 4 °C. DNA was visualised by excitation of the fluorescent tag or, in the case of unlabelled DNA, by SYBR Gold staining. Gels were imaged in a Typhoon FLA9000 by excitation at 473 nm for fluorescein-labelled DNA or SYBR Gold-stained gels, 532 nm excitation for Cy3-labelled DNA or 635 nm excitation for Cy5-labelled DNA.
(§3) Supplementary table 1. DNA oligos and peptides
(§4) Oligos Size (nt) Sequence (5’ – 3’)
D184A […] (forward), […]

[3] = tested on: RAD51 D184A, D187A NPFs; test: EMSA of TR2 titration on RAD51 D184A, D187A NPFs; type: binding, human
Experimental: as §1, §2, §3, §4
D184A […] (forward),
D184A, D187A […] (forward),
EMSA, SPR, CryoEM (micrographs,
Panels C, D (ssDNA) 60 FAM-[…]
Panels C, D (dsDNA) 60 FAM-[…],
Panels E, F (ssDNA) 60 Biotin-[…]
Panels E, F (dsDNA) 60 Biotin-[…],
Supplementary figs. 3, 4 (ssDNA) 60 Biotin-[…]
Supplementary figs. 3, 4 (dsDNA) 60 Biotin-[…],
Panel A (ssDNA) 32 Cy5-[…]
Panel B (dsDNA) 50 […]-Cy3,
Panel B (ssDNA) 60 Biotin-[…]-
Panel B (dsDNA) 60 Biotin,
Panel C (ssDNA) 32 Biotin-[…]-Biotin
Panel C (dsDNA) 50 Biotin-[…]-Cy3,
Supplementary fig. 5A 50 […]-Cy3,
Supplementary fig. 5B (ssDNA) 32 Cy5-[…]-Biotin,
Supplementary fig. 5B (ssDNA) 32 Biotin-[…]-Biotin
Supplementary fig. 5B (dsDNA) 50 Biotin-[…],
Panels B, C, D (ssDNA) 60 FAM-[…]
Panels F, G (ssDNA) 60 […]

[4] = EMSA Fig. 1C, authors' response to reviewers

DDQKNCKKRRALDFLSRLPLPPPVSPICTFVSPAAQKAFQPPRSCGTKY [TR2, BRCA2 TR2 peptide spanning amino acids 3260 to 3308]
TR2 binding by RAD51 NPFs on mSA-capped DNA [1]: competent to bind the TR2 peptide
TR2 binding to wild-type RAD51 NPFs (filament formation and mobility) ([2]; 25 mM HEPES pH 7.5, 150 mM NaCl, 2 mM DTT, 2 mM ATP, 5 mM CaCl2, RAD51 + DNA 15 min, then TR2 5 min, room temperature, 0.5% agarose, fluorescein-labelled 60 nt ss- or dsDNA, ssDNA performed twice, dsDNA once): enhancement of filament formation accompanied by formation of larger species of reduced electrophoretic mobility
bundling of TR2-bound filaments in the gel [2, 4]: do not show bundling
residual TR2 binding [3, 4]: retain a degree of binding
reduction in TR2 binding, ssDNA versus dsDNA filaments ([3]; EMSA, ssDNA compared with dsDNA): especially pronounced for filaments formed on ssDNA
TR2 binding relative to wild-type ([3]; ss- and dsDNA, 25 mM HEPES pH 7.5, 150 mM NaCl, 2 mM ATP, 5 mM CaCl2, TR2 5 min, room temperature, ssDNA performed twice, dsDNA once): reduction in TR2 binding proportional to the decrease in charge at RAD51’s acidic patch
